For 23 compounds, IC50 results are on record in patent EP0560235B1, “Condensed heterocyclic ketone derivatives, their production and use” (priority 1992, dated 1993).

One assay has as its target T1, cholinesterase (Rattus norvegicus, UniProt P37136).
T1 construct: using the S1 fraction of a homogenate of male Wistar rat cerebral cortex as the cholinesterase source; from tissue; host or cells: male Wistar rat cerebral cortex, S1 fraction of homogenate
Put plainly: Cholinesterase inhibitory activity assayed with (acetyl-[3H])-acetylcholine, S1 fraction of cerebral cortex homogenate. The following applies: S1 fraction of male Wistar rat cerebral cortex homogenate; (acetyl-[3H])-acetylcholine substrate; 30 minutes incubation; read-out: Acetylcholinesterase inhibitory activity I C50. It counts as biochemical. The procedure: The cholinesterase inhibitory activity of the compound of this invention was assayed with (acetyl-[^3H])-acetylcholine. More specifically, using the S1 fraction of a homogenate of male Wistar rat cerebral cortex as the cholinesterase source, (acetyl[^3H])-acetylcholine as the substrate and the compound of this invention as the test sample were added. The mixture was incubated for 30 minutes, then the reaction was terminated, to which was added a toluene-based scintillant, then the mixture was shaken. The reaction product [^3H]-acetic acid was transferred to the toluene layer, which was subjected to determination of cholinesterase activity by counting with a liquid scintillation counter.

In another assay the target is T2, serotonin (5-HT) uptake (Rattus norvegicus, UniProt P31652).
T2 construct: Crude synaptosomal preparations (P2) were isolated after differential centrifugation; from tissue; host or cells: rat cerebral cortex and hippocampus, crude synaptosomal preparation (P2)
T2 sequence (P31652 whole entry): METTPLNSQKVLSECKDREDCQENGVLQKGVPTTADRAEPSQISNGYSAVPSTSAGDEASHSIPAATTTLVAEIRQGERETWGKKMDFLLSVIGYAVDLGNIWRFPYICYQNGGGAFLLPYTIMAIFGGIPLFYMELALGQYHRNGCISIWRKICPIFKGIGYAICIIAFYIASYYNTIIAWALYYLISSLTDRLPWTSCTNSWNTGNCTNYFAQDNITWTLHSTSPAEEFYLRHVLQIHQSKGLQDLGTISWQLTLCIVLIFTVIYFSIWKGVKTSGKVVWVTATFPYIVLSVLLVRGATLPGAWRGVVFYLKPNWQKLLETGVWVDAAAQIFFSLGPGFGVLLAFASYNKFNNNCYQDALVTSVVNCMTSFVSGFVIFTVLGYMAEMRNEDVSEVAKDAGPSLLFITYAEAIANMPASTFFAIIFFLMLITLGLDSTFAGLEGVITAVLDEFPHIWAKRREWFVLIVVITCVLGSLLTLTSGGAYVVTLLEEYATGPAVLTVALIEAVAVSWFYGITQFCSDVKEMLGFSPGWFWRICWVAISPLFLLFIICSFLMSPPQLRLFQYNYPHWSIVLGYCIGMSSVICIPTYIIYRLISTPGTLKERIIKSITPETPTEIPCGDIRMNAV
The assay can be described thus: Monoamine uptake into crude synaptosomal preparations (P2) of cerebral cortex and hippocampus, [3H]-5-HT. It counts as biochemical, Rats. The protocol: Effects of the compound of this invention on monoamine uptake were investigated using [^3H]-norepinephirine(NE) and [^3H]-serotonin (5-HT). Rats were sacrificed by decapitation. The cerebral cortex and hippocampus were removed and homogenized in 10-15 volumes (W/V) of an ice-cold medium containing 0.32 M sucrose. Crude synaptosomal preparations (P2) were isolated after differential centrifugation at 1000 x g for 10 min and 20,000 x g for 30 min at 4°C. […] Synaptosomal membrane suspension (900 µl) was preincubated with the test compound dissolved in DMSO solution at 37°C for 5 min. […] Five minutes later, the reaction was stopped by the addition of 4 ml of ice-cold KRB and the reaction mixture was filtered through Whatman GF/B. Filters were washed twice with 4 ml of KRB and the radioactivity bound was counted with liquid scintillant. […] All compounds were tested at 10^-8, 10^-7, 10^-6 and 10^-5M.

Each structure is given as a SMILES string. pIC50: −log10 of the molar value.

T1 sequence (P37136 32-614): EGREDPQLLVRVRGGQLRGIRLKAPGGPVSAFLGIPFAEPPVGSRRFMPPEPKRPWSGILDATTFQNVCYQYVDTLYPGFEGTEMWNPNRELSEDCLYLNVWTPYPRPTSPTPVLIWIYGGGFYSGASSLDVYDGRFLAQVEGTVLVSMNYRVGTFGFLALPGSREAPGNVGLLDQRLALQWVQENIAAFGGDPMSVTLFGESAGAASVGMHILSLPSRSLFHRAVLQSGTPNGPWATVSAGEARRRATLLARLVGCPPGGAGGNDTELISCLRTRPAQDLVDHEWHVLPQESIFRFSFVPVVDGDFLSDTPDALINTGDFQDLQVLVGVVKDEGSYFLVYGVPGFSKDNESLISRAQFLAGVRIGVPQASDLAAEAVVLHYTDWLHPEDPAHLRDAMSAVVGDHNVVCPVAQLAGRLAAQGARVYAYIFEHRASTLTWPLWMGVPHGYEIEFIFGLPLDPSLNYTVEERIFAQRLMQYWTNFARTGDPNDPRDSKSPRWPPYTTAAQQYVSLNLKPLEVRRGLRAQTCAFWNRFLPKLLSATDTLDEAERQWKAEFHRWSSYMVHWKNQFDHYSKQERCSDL

As for `O=C(CCN1CCN(Cc2ccccc2)CC1)c1ccc2c(c1)CNCCC2` [13-3], the pIC50 on cholinesterase is 7.10.

With `O=C(CCN1CCN(Cc2ccccc2)CC1)c1ccc2c(c1)CCN2Cc1ccccc1` [14-1], the pIC50 on serotonin (5-HT) uptake is 6.38.

`O=C(CCN1CCN(Cc2ccccc2)CC1)c1ccc2c(c1)CN(Cc1ccccc1)CCC2` [14-2]: the pIC50 on cholinesterase was 6.27.

As for `O=C(CCN1CCN(Cc2ccccc2)CC1)c1ccc2c(c1)CCN(Cc1cccc(Cl)c1)CC2` [14-4], the pIC50 at cholinesterase is 6.83.

`CCN1CCc2ccc(C(=O)CCN3CCN(Cc4ccccc4)CC3)cc2CC1` [14-5]: the pIC50 on cholinesterase was 7.73.

Take `O=C(CCN1CCN(Cc2ccccc2Cl)CC1)c1ccc2c(c1)CCN(Cc1ccccc1)CC2` [14-6]: the pIC50 on cholinesterase was 6.95; against serotonin (5-HT) uptake, 7.46.

Compound `O=C(CCN1CCN(Cc2cccc(Cl)c2)CC1)c1ccc2c(c1)CCN(Cc1ccccc1)CC2` [14-7] showed a pIC50 against serotonin (5-HT) uptake of 7.38.

`O=C(CCN1CCN(Cc2ccccc2)CC1)c1ccc2c(c1)CCN(Cc1ccc(Cl)cc1)CC2` [14-10]: at cholinesterase, the pIC50 was 6.78.

As for `Cc1ccccc1CN1CCc2ccc(C(=O)CCN3CCN(Cc4ccccc4)CC3)cc2CC1` [14-14], the pIC50 on cholinesterase was 7.20.

`N#Cc1ccc(CN2CCc3ccc(C(=O)CCN4CCN(Cc5ccccc5)CC4)cc3CC2)cc1` [14-19]: the pIC50 at cholinesterase was 7.47.

For `O=C(CCN1CCN(Cc2ccccc2)CC1)c1ccc2c(c1)CCN(Cc1cccc(F)c1)CC2` [14-20], at cholinesterase, the pIC50 is 7.32.

Regarding `COc1ccccc1CN1CCc2ccc(C(=O)CCN3CCN(Cc4ccccc4)CC3)cc2CC1` [14-21], on cholinesterase, the pIC50 is 7.65.

Consider `COc1ccc(CN2CCc3ccc(C(=O)CCN4CCN(Cc5ccccc5)CC4)cc3CC2)cc1OC` [14-22], for which the pIC50 at cholinesterase was 7.67.

For `Cc1ccc(CN2CCc3ccc(C(=O)CCN4CCN(Cc5ccccc5)CC4)cc3CC2)cc1` [14-23], the results for the pIC50 at cholinesterase and on serotonin (5-HT) uptake were 7.18 and 7.23, respectively.

Turning to `Cc1cccc(CN2CCc3ccc(C(=O)CCN4CCN(Cc5ccccc5)CC4)cc3CC2)c1` [14-25], on cholinesterase, the pIC50 was 7.16.

Take `COc1cccc(CN2CCc3ccc(C(=O)CCN4CCN(Cc5ccccc5)CC4)cc3CC2)c1` [14-27]: on cholinesterase, the pIC50 is 6.88.

As for `COc1ccc(CN2CCc3ccc(C(=O)CCN4CCN(Cc5ccccc5)CC4)cc3CC2)cc1` [14-29], the values for the pIC50 on cholinesterase and against serotonin (5-HT) uptake were 7.59 and 7.26, respectively.

With `O=C(CCN1CCN(Cc2ccccc2)CC1)c1ccc2c(c1)CCN(CCc1ccccc1)CC2` [14-31], the values for the pIC50 at cholinesterase and on serotonin (5-HT) uptake were 7.48 and 7.52, respectively.

On to `CC(C)CN1CCc2ccc(C(=O)CCN3CCN(Cc4ccccc4)CC3)cc2CC1` [14-33], for which the pIC50 is 7.47 at cholinesterase and 7.25 against serotonin (5-HT) uptake.

Consider `COc1ccc(CCN2CCc3ccc(C(=O)CCN4CCN(Cc5ccccc5)CC4)cc3CC2)cc1OC` [14-36], for which the pIC50 at cholinesterase was 7.77; at serotonin (5-HT) uptake, 7.88.

For `O=C(CCN1CCN(Cc2ccccc2)CC1)c1ccc2c(c1)CCN(C(=O)c1ccccc1)CC2` [17-3], at cholinesterase, the pIC50 was 7.08.

With `CC(=O)N1CCc2cc(C(=O)CCN3CCN(Cc4ccccc4)CC3)ccc21` [compound 16], the pIC50 at cholinesterase was 7.60.

On to `CN1CCc2ccc(C(=O)CCN3CCN(Cc4ccccc4)CC3)cc2CC1` [compound 18], for which the pIC50 at cholinesterase is 7.47.
